Data taken from patent US9822058B2 (CHDI FOUNDATION, INC., priority 2012, dated 2017).

Target: T1, KMO mouse enzyme (Mus musculus, UniProt Q91WN4)
T1 construct: KMO enzyme prepared at Evotec from mouse liver (4-6 weeks old) via mitochondria isolation; from tissue; host or cells: mouse liver (4-6 weeks old), isolated mitochondria, prepared at Evotec
Assay: KMO mouse enzyme assay: L-Kynurenine hydroxylation to 3-Hydroxy-Kynurenine by LC/MS (protocols substantially similar to Example 33)
Format: biochemical
Conditions: compound at 30 µM; KMO enzyme from mouse liver mitochondria; 100 μM L-Kynurenine; 40 min at RT
Protocol: A method of monitoring L-Kynurenine (KYN) hydroxylation to form 3-Hydroxy-Kynurenine (3OH-KYN) by LC/MS is described. Product is quantified by multiple reaction monitoring (MRM method). […]
Using the assay protocols substantially similar to those of Example 33, the following compounds were tested.

T1 sequence (Q91WN4 whole entry): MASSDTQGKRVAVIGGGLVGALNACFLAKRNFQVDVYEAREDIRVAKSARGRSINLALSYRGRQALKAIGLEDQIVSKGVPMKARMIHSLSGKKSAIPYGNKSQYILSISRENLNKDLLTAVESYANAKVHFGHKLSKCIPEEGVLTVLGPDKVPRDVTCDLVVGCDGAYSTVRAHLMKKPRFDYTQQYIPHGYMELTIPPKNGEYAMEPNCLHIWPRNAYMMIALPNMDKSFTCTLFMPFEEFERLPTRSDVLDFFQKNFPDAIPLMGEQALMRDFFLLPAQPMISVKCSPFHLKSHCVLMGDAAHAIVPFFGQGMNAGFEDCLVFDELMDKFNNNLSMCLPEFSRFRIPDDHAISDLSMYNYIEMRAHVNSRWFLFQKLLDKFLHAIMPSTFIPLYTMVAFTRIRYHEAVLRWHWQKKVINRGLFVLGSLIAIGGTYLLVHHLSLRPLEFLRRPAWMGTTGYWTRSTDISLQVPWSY

Compared with `N#C[C@H]1C[C@@H]1C(=O)c1ccc(Cl)c(Cl)c1` [(1S,2S)-2-[(3,4-Dichlorophenyl)carbonyl]cyclopropane-1-carbonitrile], `O=C(O)[C@H]1C[C@@H]1C(=O)c1ccc(Cl)c(Cl)c1` [(1S,2S)-2-[(3,4-Dichlorophenyl)carbonyl]cyclopropane-1-carboxylic acid] is higher in inhibition at 30 µM: 68% for the first, 106% for the second.

`CC(C)OC(=O)[C@H]1C[C@@H]1C(=O)c1ccc(Cl)c(Cl)c1` [Propan-2-yl (1S,2S)-2-[(3,4-dichlorophenyl)carbonyl]cyclopropane-1-carboxylate] and `CC(C)COC(=O)[C@H]1C[C@@H]1C(=O)c1ccc(Cl)c(Cl)c1` [2-Methylpropyl (1S,2S)-2-[(3,4-dichlorophenyl)carbonyl]cyclopropane-1-carboxylate] are the same in inhibition at 30 µM: 101% for the first, 101% for the second.

First: C[C@@H]1[C@H](C(=O)O)[C@H]1C(=O)c1ccc(Cl)c(Cl)c1 (single isomer, unassigned)
Second: C[C@H]1[C@H](C(=O)O)[C@H]1C(=O)c1ccc(Cl)c(Cl)c1 (single isomer, unassigned)
The inhibition at 30 µM of the first is lower: 52.5% for the first, 101% for the second.

First: CC1(C)[C@@H](C(=O)O)[C@@H]1C(=O)c1ccc(Cl)c(Cl)c1 [(1S,3S)-3-(3,4-dichlorobenzoyl)-2,2-dimethylcyclopropane-1-carboxylic acid]
Second: CC1(C)[C@H](C(=O)O)[C@H]1C(=O)c1ccc(Cl)c(Cl)c1 [(1R,3R)-3-(3,4-dichlorobenzoyl)-2,2-dimethylcyclopropane-1-carboxylic acid]
The inhibition at 30 µM of the first is lower: 15.4% for the first, 54% for the second.

First: O=C(O)[C@H]1C[C@@H]1C(=O)c1ccc(F)c(F)c1 [(1S,2S)-2-[(3,4-Difluorophenyl)carbonyl]cyclopropane-1-carboxylic acid]
Second: O=C(c1ccc(F)c(Cl)c1)C1C[C@@H]1C(=O)O (stereo partly drawn) [(1S)-2-[(3-Chloro-4-fluorophenyl)carbonyl]cyclopropane-1-carboxylic acid]
The inhibition at 30 µM of the first is higher: 88% for the first, 68% for the second.

`O=C(O)[C@H]1C[C@@H]1C(=O)c1ccc(C(F)(F)F)c(Cl)c1` [(1S,2S)-2-{[3-Chloro-4-(trifluoromethyl)phenyl]carbonyl}cyclopropane-1-carboxylic acid] and `O=C(O)[C@H]1C[C@@H]1C(=O)c1ccc(F)c(Cl)c1` [Sodium (1S,2S)-2-[(3-chloro-4-fluorophenyl)carbonyl]cyclopropane-1-carboxylate] are the same in inhibition at 30 µM: 102% for the first, 102% for the second.

Compared with `CCOC(=O)OC(C)OC(=O)[C@H]1C[C@@H]1C(=O)c1ccc(Cl)c(Cl)c1` (stereo partly drawn) [1-[(Ethoxycarbonyl)oxy]ethyl (1S,2S)-2-[(3,4-dichlorophenyl)carbonyl]cyclopropane-1-carboxylate], `CC(=O)OC(C)OC(=O)[C@H]1C[C@@H]1C(=O)c1ccc(Cl)c(Cl)c1` (stereo partly drawn) [1-{[(1S,2S)-2-[(3,4-Dichlorophenyl)carbonyl]cyclopropyl]carbonyloxy}ethyl acetate] is higher in inhibition at 30 µM: 102% for the first, 103% for the second.

Going from `O=C1CN(C(=O)[C@H]2C[C@@H]2C(=O)c2ccc(Cl)c(Cl)c2)CCN1` [4-{[(1S,2S)-2-[(3,4-Dichlorophenyl)carbonyl]cyclopropyl]carbonyl}piperazin-2-one] to `O=C(OCCO)[C@H]1C[C@@H]1C(=O)c1ccc(Cl)c(Cl)c1` [2-Hydroxyethyl (1S,2S)-2-[(3,4-dichlorophenyl)carbonyl]cyclopropane-1-carboxylate], the inhibition at 30 µM rises from 33% to 102%.

Going from `Cc1ccc(C(=O)[C@H]2C[C@@H]2C(=O)O)cc1Cl` [(1S,2S)-2-[(3-Chloro-4-methylphenyl)carbonyl]cyclopropane-1-carboxylic acid] to `O=C(O)[C@H]1C[C@@H]1C(=O)c1ccc(Cl)c(F)c1` [(1S,2S)-2-[(4-Chloro-3-fluorophenyl)carbonyl]cyclopropane-1-carboxylic acid], the inhibition at 30 µM rises from 100% to 103%.

Compared with `CC(C)OC(=O)OC(C)OC(=O)[C@H]1C[C@@H]1C(=O)c1ccc(Cl)c(Cl)c1` (stereo partly drawn) [1-{[(Propan-2-yloxy)carbonyl]oxy}ethyl (1S,2S)-2-[(3,4-dichlorophenyl)carbonyl]cyclopropane-1-carboxylate], `CC(C)(C)C(=O)OCOC(=O)[C@H]1C[C@@H]1C(=O)c1ccc(Cl)c(Cl)c1` [{[(1S,2S)-2-[(3,4-dichlorophenyl)carbonyl]cyclopropyl]carbonyloxy}methyl 2,2-dimethylpropanoate] is lower in inhibition at 30 µM: 103% for the first, 102% for the second.

Compared with `CCN(CC)CCOC(=O)[C@H]1C[C@@H]1C(=O)c1ccc(Cl)c(Cl)c1` [2-(Diethylamino)ethyl (1S,2S)-2-[(3,4-dichlorophenyl)carbonyl]cyclopropane-1-carboxylate], `CCCCOC(=O)[C@H]1C[C@@H]1C(=O)c1ccc(Cl)c(Cl)c1` [Butyl (1S,2S)-2-[(3,4-Dichlorophenyl)carbonyl]cyclopropane-1-carboxylate] is lower in inhibition at 30 µM: 102% for the first, 101% for the second.

Going from `O=C(O)[C@H]1N[C@@H]1C(=O)c1ccc(Cl)c(Cl)c1` [(2S,3S)-3-[(3,4-Dichlorophenyl)carbonyl]aziridine-2-carboxylic acid] to `C[C@@H]1[C@@H](C(=O)O)[C@@H]1C(=O)c1ccc(Cl)c(Cl)c1` (single isomer, unassigned), the inhibition at 30 µM falls from 101% to 96.7%.

Compared with `CC(OC(=O)[C@H]1C[C@@H]1C(=O)c1ccc(Cl)c(Cl)c1)OC(=O)[C@H]1C[C@@H]1C(=O)c1ccc(Cl)c(Cl)c1` [1-{[(1S,2S)-2-[(3,4-dichlorophenyl)carbonyl]cyclopropyl]carbonyloxy}ethyl (1S,2S)-2-[(3,4-dichlorophenyl)carbonyl]cyclopropane-1-carboxylate], `CC(C)(C)c1ccc(OC(=O)[C@H]2C[C@@H]2C(=O)c2ccc(Cl)c(Cl)c2)cc1` [4-tert-Butylphenyl (1S,2S)-2-[(3,4-dichlorophenyl)carbonyl]cyclopropane-1-carboxylate] is higher in inhibition at 30 µM: 98% for the first, 101% for the second.

Compared with `O=C(c1ccc(Cl)c(Cl)c1)C1CC12CCOC2=O` (stereo not drawn) [1-[(3,4-dichlorophenyl)carbonyl]-5-oxaspiro[2.4]heptan-4-one], `C[C@]1(C(=O)O)C[C@@H]1C(=O)c1ccc(Cl)c(Cl)c1` [(1S,2S)-2-(3,4-dichlorobenzoyl)-1-methylcyclopropane-1-carboxylic acid] is higher in inhibition at 30 µM: 38% for the first, 98.6% for the second.

`O=C(c1ccc(Cl)c(Cl)c1)[C@H]1C[C@@H]1c1nnn[nH]1` [5-[(1S,2S)-2-[(3,4-Dichlorophenyl)carbonyl]cyclopropyl]-1H-1,2,3,4-tetrazole] and `O=C(c1ccc(Cl)c(Cl)c1)[C@H]1C[C@@H]1c1noc(=O)[nH]1` [3-[(1S,2S)-2-[(3,4-Dichlorophenyl)carbonyl]cyclopropyl]-4,5-dihydro-1,2,4-oxadiazol-5-one] are the same in inhibition at 30 µM: 101% for the first, 101% for the second.

Going from `O=C(c1ccc(F)c(Cl)c1)[C@H]1C[C@@H]1c1noc(=O)[nH]1` [3-[(1S,2S)-2-[(3-Chloro-4-fluorophenyl)carbonyl]cyclopropyl]-4,5-dihydro-1,2,4-oxadiazol-5-one] to `CC(C)Oc1ccc(C(=O)[C@H]2C[C@@H]2C(=O)O)cc1Cl` [(1S,2S)-2-{[3-Chloro-4-(propan-2-yloxy)phenyl]carbonyl}cyclopropane-1-carboxylic acid], the inhibition at 30 µM falls from 101% to 98%.

First: O=C(O)[C@H]1C[C@@H]1C(=O)c1cccc(Cl)c1 [(1S,2S)-2-[(3-Chlorophenyl)carbonyl]cyclopropane-1-carboxylic acid]
Second: O=C(O)[C@H]1C[C@@H]1C(=O)c1cc(Cl)cc(Cl)c1 [(1S,2S)-2-[(3,5-Dichlorophenyl)carbonyl]cyclopropane-1-carboxylic acid]
The inhibition at 30 µM of the first is higher: 105% for the first, 103% for the second.

First: O=C(Nc1ccccc1)[C@H]1C[C@@H]1C(=O)c1ccc(Cl)c(Cl)c1 [(1S,2S)-2-[(3,4-Dichlorophenyl)carbonyl]-N-phenylcyclopropane-1-carboxamide]
Second: C[C@H]1[C@@H](C(=O)O)[C@@H]1C(=O)c1ccc(Cl)c(Cl)c1 (single isomer, unassigned)
The inhibition at 30 µM of the first is lower: 86% for the first, 101% for the second.

Compared with `NC(=O)[C@H]1C[C@@H]1C(=O)c1ccc(OC2CC2)c(Cl)c1` [(1S,2S)-2-[(3-chloro-4-cyclopropoxyphenyl)carbonyl]cyclopropane-1-carboxamide], `O=C(O)[C@H]1C[C@@H]1C(=O)c1ccc(OC2CC2)c(Cl)c1` [(1S,2S)-2-[(3-Chloro-4-cyclopropoxyphenyl)carbonyl]cyclopropane-1-carboxylic acid] is higher in inhibition at 30 µM: 42% for the first, 101% for the second.

For `COC(=O)[C@H]1C[C@@H]1C(=O)c1cc(Cl)cc(Cl)c1` [Methyl (1S,2S)-2-[(3,5-dichlorophenyl)carbonyl]cyclopropane-1-carboxylate], the inhibition at 30 µM was 104%.

First: C[N+](C)(C)CC(CC(=O)O)OC(=O)[C@H]1C[C@@H]1C(=O)c1ccc(Cl)c(Cl)c1 (stereo partly drawn) [(3-Carboxy-2-{[(1S,2S)-2-[(3,4-dichlorophenyl)carbonyl]cyclopropyl]carbonyloxy}propyl)trimethylazanium]
Second: N[C@@H](CCCCNC(=O)[C@H]1C[C@@H]1C(=O)c1ccc(Cl)c(Cl)c1)C(=O)O [(2S)-2-Amino-6-{[(1S,2S)-2-[(3,4-dichlorophenyl)carbonyl]cyclopropyl]formamide}hexanoic acid]
The “% Inhibition at 30 µM” value of the first is higher: 99% for the first, 98% for the second.

Compared with `CC(C)Oc1ccc(C(=O)[C@H]2C[C@@H]2C(=O)[O-])cc1Cl.[Na+]` [Sodium (1S,2S)-2-{[3-chloro-4-(propan-2-yloxy)phenyl]carbonyl}cyclopropane-1-carboxylate], `Cc1ccc(C(=O)[C@H]2C[C@@H]2C(=O)[O-])cc1Cl.[Na+]` [Sodium (1S,2S)-2-[(3-chloro-4-methylphenyl)carbonyl]cyclopropane-1-carboxylate] is lower in “% Inhibition at 30 µM” value: 102% for the first, 100% for the second.

In the case of `O=C([O-])[C@H]1C[C@@H]1C(=O)c1ccc(C(F)(F)F)c(Cl)c1.[Na+]` [Sodium (1S,2S)-2-{[3-chloro-4-(trifluoromethyl)phenyl]carbonyl}cyclopropane-1-carboxylate], the “% Inhibition at 30 µM” value is reported as 102%.

Same assay, conditions: compound at 30 µM; KMO enzyme from mouse liver mitochondria; 100 μM L-Kynurenine; 40 min at RT; listed as 1S,2S)-2-(3-chloro-4-cyclopropoxybenzoyl)cyclopropane-1-carboxylic acid

In the case of `O=C(O)[C@H]1C[C@@H]1C(=O)c1ccc(OC2CC2)c(Cl)c1` [(1S,2S)-2-[(3-Chloro-4-cyclopropoxyphenyl)carbonyl]cyclopropane-1-carboxylic acid], the “% Inhibition at 30 µM” value is reported as 100.5%.
